Values quoted from earlier work, collected in US20050260283A1, “Composition for prevention and treatment of colon adenomas” (Medical Futures Inc., priority 2004, published 2005).

How the values were obtained:
[1] = test system: colorectal adenomas; details: calcium supplementation; volunteers with a history of colorectal adenomas (Baron, 1999)
[2] = test system: colorectal cancer; details: regular aspirin use; epidemiological studies (Krishnan, 1997)

For `O=C([O-])[O-].[Ca+2]` [calcium carbonate], the “risk of recurrent colorectal adenomas” value [1] is listed as “moderate but significant reduction”.
For `CC(=O)Oc1ccccc1C(=O)O` [aspirin], the “reduction in the incidence of colorectal cancer” value [2] is given as 40-50%.
